In US11285135B2 (AMGEN INC., priority 2016, dated 2022):

target: GDP-bound protein (aa 1-169), containing both G12C and C118A amino acid substitutions (Homo sapiens, UniProt P01116, C118A/G12C); test: Coupled Nucleotide Exchange Assay (SOS-mediated nucleotide exchange, AlphaScreen); format: biochemical; conditions: 2 hours compound pre-incubation
Description: Coupled Nucleotide Exchange Assay: Purified GDP-bound […] protein (aa 1-169), containing both G12C and C118A amino acid substitutions and an N-terminal His-tag, was pre-incubated with a compound dose-response titration for 2 hours in assay buffer (25 mM HEPES pH 7.4, 10 mM MgCl2, and 0.01% Triton X-100). Following compound pre-incubation, purified SOS protein (aa 564-1049) and GTP (Roche 10106399001) were added to the assay wells and incubated for an additional hour. […] The assay plates were then read on a PerkinElmer EnVision Multilabel Reader, using AlphaScreen® technology, and data were analyzed using a 4-parameter logistic model to calculate IC50 values.

Chain of GDP-bound protein (aa 1-169), containing both G12C and C118A amino acid substitutions (P01116 1-169 isoform P01116-2 G12C/C118A): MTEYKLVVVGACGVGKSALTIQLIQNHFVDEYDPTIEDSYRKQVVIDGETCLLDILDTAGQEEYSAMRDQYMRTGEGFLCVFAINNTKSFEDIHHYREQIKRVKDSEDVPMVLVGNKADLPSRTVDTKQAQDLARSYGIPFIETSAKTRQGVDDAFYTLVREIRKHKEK

Point of comparison: `C=CC(=O)N1CCN(c2snc3nc(-c4c(F)cccc4OC)c(Cl)cc23)C(C)C1` (racemic) [Example 2-2, 1-(4-(5-chloro-6-(2-fluoro-6-methoxyphenyl)[1,2]thiazolo[3,4-b]pyridin-3-yl)-3-methyl-1-piperazinyl)-2-propen-1-one], “Coupled exchange IC50” value 12.7 µM. Against it:
- C=CC(=O)N1CCN(c2snc3c(F)c(-c4cc(N)ccc4F)c(Cl)cc23)CC1 [Example 3-14, 1-(4-(6-(5-amino-2-fluorophenyl)-5-chloro-7-fluoro-2,1-benzothiazol-3-yl)-1-piperazinyl)-2-propen-1-one] — 2.3-fold lower, 5.64 µM
- C=CC(=O)N1CCN(c2nnc(Cl)c3cc(-c4c(O)cccc4F)c(Cl)cc23)CC1 [Example 10-13, 1-(4-(4,7-dichloro-6-(2-fluoro-6-hydroxyphenyl)-1-phthalazinyl)-1-piperazinyl)-2-propen-1-one] — within 1.5-fold, 15.1 µM
- C=CC(=O)N1CCN(c2snc3c(F)c(-c4cc(NC(C)=O)ccc4C)c(Cl)cc23)CC1 [Example 3-13, N-(3-(5-chloro-7-fluoro-3-(4-(2-propenoyl)-1-piperazinyl)-2,1-benzothiazol-6-yl)-4-methylphenyl)acetamide] — 2-fold lower, 6.49 µM
- C=CC(=O)N1CCN(c2snc3c(F)c(-c4cnccc4C(C)C)c(Cl)cc23)CC1 [Example 3-21, 1-(4-(5-chloro-7-fluoro-6-(4-(2-propanyl)-3-pyridinyl)-2,1-benzothiazol-3-yl)-1-piperazinyl)-2-propen-1-one] — 2.5-fold higher, 32.0 µM
- C=CC(=O)N1CCC[C@@H](Nc2snc3c(F)c(Br)c(Cl)cc23)C1 [Example 4-8, 1-((3R)-3-((6-bromo-5-chloro-7-fluoro-2,1-benzothiazol-3-yl)amino)-1-piperidinyl)-2-propen-1-one] — 14-fold higher, 177 µM
- C=CC(=O)N1CCN(c2snc3c(F)c(-c4cc(O)cc5ccccc45)c(Cl)cc23)CC1C(N)=O (racemic) [Example 1-12, 4-(5-chloro-7-fluoro-6-(3-hydroxy-1-naphthalenyl)-2,1-benzothiazol-3-yl)-1-(2-propenoyl)-2-piperazinecarboxamide] — within 1.5-fold, 11.8 µM
- C=CC(=O)NC1(C)CN(c2snc3c(F)c(-c4cc(O)cc5ccccc45)c(Cl)cc23)C1 [Example 5-2, N-(1-(5-chloro-7-fluoro-6-(3-hydroxy-1-naphthalenyl)-2,1-benzothiazol-3yl)-3-methyl-3-azetidinyl)-2-propenamide] — within 1.5-fold, 14.2 µM
- C=CC(=O)N[C@@H]1CN(c2snc3c(F)c(-c4cc(O)cc5ccccc45)c(Cl)cc23)[C@@H]1C (racemic) [Example 1-9, N-(1-(5-chloro-7-fluoro-6-(3-hydroxy-1-naphthalenyl)-2,1-benzothiazol-3-yl)-2-methyl-3-azetidinyl)-2-propenamide] — 2.1-fold lower, 5.92 µM
- C=C(CO)C(=O)N1CCN(c2snc3c(F)c(-c4cc(OC)cc5ccccc45)c(Cl)cc23)CC1 [Example 18-1, 1-(4-(5-chloro-7-fluoro-6-(3-methoxy-1-naphthalenyl)-2,1-benzothiazol-3-yl)-1-piperazinyl)-2-(hydroxymethyl)-2-propen-1-one] — 1.8-fold higher, 23.0 µM
- C=CC(=O)N1CCN(c2nnc(Cc3ccccc3)c3cc(Cl)c(-c4c(O)cccc4F)cc23)CC1 [Example 36, 2-(4-(4-acryloyl-1-piperazinyl)-1-benzyl-7-chloro-6-phthalazinyl)-3-fluorophenol] — 3.1-fold higher, 39.8 µM
- C=CC(=O)N1CC(Nc2snc3c(F)c(Br)c(Cl)cc23)C1 [Example 4-7, 1-(3-((6-bromo-5-chloro-7-fluoro-2,1-benzothiazol-3-yl)amino)-1-azetidinyl)-2-propen-1-one] — 9.8-fold higher, 125 µM
- C=CC(=O)N1[C@@H]2CC[C@H]1CN(c1snc3c(F)c(-c4cc(O)cc5ccccc45)c(Cl)cc13)C2 [Example 1-17, 1-((1R,5S)-3-(5-chloro-7-fluoro-6-(3-hydroxy-1-naphthalenyl)-2,1-benzothiazol-3-yl)-3,8-diazabicyclo[3.2.1]octan-8-yl)-2-propen-1-one] — 5-fold higher, 63.5 µM
- C=CC(=O)N1CCN(c2nnc(N3CCCCC3)c3cc(-c4c(O)cccc4F)c(Cl)cc23)CC1 [Example 15, 1-(4-(7-Chloro-6-(2-fluoro-6-hydroxyphenyl)-4-(1-piperidinyl)-1-phthalazinyl)-1-piperazinyl)-2-propen-1-one] — 5-fold lower, 2.56 µM
- COc1cc(-c2c(Cl)cc3c(N4CCN(C(=O)/C=C/CN(C)C)CC4)snc3c2F)c2ccccc2c1 [Example 17-1, (2E)-1-(4-(5-Chloro-7-fluoro-6-(3-methoxy-1-naphthalenyl)-2,1-benzothiazol-3-yl)-1-piperazinyl)-4-(dimethylamino)-2-buten-1-one] — 1.6-fold higher, 20.6 µM
- C=CC(=O)N1CCN(c2nnc(C3CCCC3)c3cc(-c4c(O)cccc4F)c(Cl)cc23)CC1 [Example 14, 1-(4-(7-Chloro-4-cyclopentyl-6-(2-fluoro-6-hydroxyphenyl)-1-phthalazinyl)-1-piperazinyl)-2-propen-1-one] — 4.7-fold lower, 2.69 µM
- C=CC(=O)N1CCN(c2snc3c(F)c(-c4cc(OC)cc5cnn(C)c45)c(Cl)cc23)CC1 [Example 19-1, 1-(4-(5-chloro-7-fluoro-6-(5-methoxy-1-methyl-1H-indazol-7-yl)-2,1-benzothiazol-3-yl)-1-piperazinyl)-2-propen-1-one] — within 1.5-fold, 15.2 µM
- C=C(CCO)C(=O)N1CCN(c2snc3c(F)c(-c4cc(O)cc5ccccc45)c(Cl)cc23)CC1 [Example 20, 1-(4-(5-chloro-7-fluoro-6-(3-hydroxy-1-naphthalenyl)-2,1-benzothiazol-3-yl)-1-piperazinyl)-4-hydroxy-2-methylidene-1-butanone] — 6.2-fold higher, 78.8 µM
- C=CC(=O)N1CCN(c2nnc(OC)c3cc(-c4c(O)cccc4F)c(Cl)cc23)CC1 (single isomer, unassigned) [Example 32, 2-(1-(4-Acryloyl-1-piperazinyl)-7-chloro-4-methoxy-6-phthalazinyl)-3-fluorophenol] — 2.3-fold higher, 28.6 µM
- C=CC(=O)N1CCN(c2nnc(C(C)c3ccccc3)c3cc(-c4c(O)cccc4F)c(Cl)cc23)CC1 (racemic) [Example 28, 1-(4-(7-chloro-6-(2-fluoro-6-hydroxyphenyl)-4-((1R)-1-phenylethyl)-1-phthalazinyl)-1-piperazinyl)-2-propen-1-one and 1-(4-(7-chloro-6-(2-fluoro-6-hydroxyphenyl)-4-((1S)-1-phenylethyl)-1-phthalazinyl)-1-piperazinyl)-2-propen-1-one] — 1.6-fold lower, 8.17 µM
- C=CC(=O)N1CCN(c2snc3c(F)c(-c4ncccc4Cl)c(Cl)cc23)CC1 [Example 6-2, 1-(4-(5-chloro-6-(3-chloro-2-pyridinyl)-7-fluoro-2,1-benzothiazol-3-yl)-1-piperazinyl)-2-propen-1-one] — 2.4-fold lower, 5.31 µM
- C=CC(=O)N1CCN(c2snc3c(F)c(-c4cc(O)cc5ncccc45)c(Cl)cc23)CC1 [Example 21, 1-(4-(5-chloro-7-fluoro-6-(7-hydroxy-5-quinolinyl)-2,1-benzothiazol-3-yl)-1-piperazinyl)-2-propen-1-one] — within 1.5-fold, 9.41 µM
- C=CC(=O)N1CCN(c2snc3nc(-c4c(C)ccc5[nH]ncc45)c(Cl)cc23)C(C)C1 (single isomer, unassigned) [Example 2-6-1, 1-((3S)-4-(5-chloro-6-(5-methyl-1H-indazol-4-yl)[1,2]thiazolo[3,4-b]pyridin-3-yl)-3-methyl-1-piperazinyl)-2-propen-1-one or 1-((3R)-4-(5-chloro-6-(5-methyl-1H-indazol-4-yl)[1,2]thiazolo[3,4-b]pyridin-3-yl)-3-methyl-1-piperazinyl)-2-propen-1-one] — within 1.5-fold, 13.0 µM
- C=CC(=O)N1CCN(c2nnc(-c3ccccc3)c3cc(Cl)c(-c4c(O)cccc4F)cc23)CC1 [Example 31, 2-(4-(4-acryloyl-1-piperazinyl)-7-chloro-1-phenyl-6-phthalazinyl)-3-fluorophenol] — 9.7-fold higher, 123 µM

For `C=CC(=O)N1CC2(C1)CN(c1snc3c(F)c(-c4cc(OC)cc5ccccc45)c(Cl)cc13)C2` [Example 4-3, 1-(6-(5-chloro-7-fluoro-6-(3-methoxy-1-naphthalenyl)-2,1-benzothiazol-3-yl)-2,6-diazaspiro[3,3]heptan-2-yl)-2-propen-1-one], the “Coupled exchange IC50” value was greater than 250 µM.
`C=CC(=O)N1CC2(C1)CN(c1snc3c(F)c(Br)c(Cl)cc13)C2` [Example 4-2, 1-(6-(6-bromo-5-chloro-7-fluoro-2,1-benzothiazol-3-yl)-2,6-diazaspiro[3.3]hept-2-yl)-2-propen-1-one] was tested, and the “Coupled exchange IC50” value was greater than 250 µM.
For `C=CC(=O)NC1CN(c2snc3c(F)c(-c4cc(OC)cc5ccccc45)c(Cl)cc23)C1` [Example 4-5, N-(1-(5-chloro-7-fluoro-6-(3-methoxy-1-naphthalenyl)-2,1-benzothiazol-3-yl)-3-azetidinyl)-2-propenamide], the “Coupled exchange IC50” value was greater than 250 µM.
`C=CC(=O)N1CCN(c2snc3c(F)c(-c4cccc5[nH]c(=O)ccc45)c(Cl)cc23)CC1` [Example 3-4, 5-(5-chloro-7-fluoro-3-(4-(2-propenoyl)-1-piperazinyl)-2,1-benzothiazol-6-yl)-2(1H)-quinolinone] was tested, and the “Coupled exchange IC50” value was greater than 250 µM.
In the case of `C=CC(=O)N[C@@H]1CCCN(c2snc3c(F)c(-c4cc(O)cc5ccccc45)c(Cl)cc23)C1` [Example 1-23, N-((3R)-1-(5-chloro-7-fluoro-6-(3-hydroxy-1-naphthalenyl)-2,1-benzothiazol-3-yl)-3-piperidinyl)-2-propenamide], the “Coupled exchange IC50” value is reported as greater than 250 µM.
With `C=CC(=O)NC1CN(c2snc3c(F)c(Br)c(Cl)cc23)C1` [Example 4-4, N-(1-(6-bromo-5-chloro-7-fluoro-2,1-benzothiazol-3-yl)-3-azetidinyl)-2-propenamide] the “Coupled exchange IC50” value was greater than 250 µM.
